Molecules are shown by their SMILES.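 A five-concentration, 48-hour dose response in 96-well plates underlies each endpoint, interpolated linearly between surrounding concentrations. GI50 is the concentration that inhibits growth by half.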 Calls of active or inactive are those of the source. Cut-off read from the data, not from the text of the source: active = GI50 up to about 1.1 µM and inactive = higher.

Among the test systems are SK-MEL-5; Malme-3M; LOX IMVI; HT-29; A549; MDA-MB-231; Hs-578T; DU-145; MCF7; COLO 205; U-251; ACHN; NCI-H460; OVCAR-4; HL-60; M14; SF-539; SR; KM12; A498.
Common to all, as to experiment: inhibition of tumour cell growth, NCI panel, 48 h

Turning to `CC(CCN)(CCN)[N+](=O)[O-]`, the GI50 in the assay on SK-MEL-5, with Malme-3M, in the assay on LOX IMVI, with HT-29, in the assay on A549 and in the assay with MDA-MB-231 was > 100 µM (inactive) throughout. For the same compound, the GI50 in the assay with Hs-578T, in the assay on DU-145, with MCF7, with COLO 205, in the assay with U-251 and with ACHN was > 100 µM (inactive) throughout. The GI50 with NCI-H460, in the assay on OVCAR-4, in the assay on HL-60, in the assay on M14, in the assay on SF-539 and in the assay with SR was > 100 µM (inactive) in each case. Also, the GI50 in the assay on KM12 and in the assay with A498 was > 100 µM (inactive) in each case.

`O=C(O)/C=N\N=c1[nH]c2ccccc2[nH]1`: the GI50 in the assay with SK-MEL-5, in the assay with Malme-3M, with LOX IMVI, in the assay on HT-29, with A549 and in the assay on MDA-MB-231 was > 100 µM (inactive) throughout. Also, the GI50 with Hs-578T is > 100 µM (inactive); in the assay on DU-145, > 100 µM (inactive); in the assay on MCF7, 49.2 µM (inactive); in the assay with COLO 205 it was > 100 µM (inactive); with U-251, > 100 µM (inactive); in the assay with ACHN, > 100 µM (inactive). The GI50 in the assay with NCI-H460, in the assay with OVCAR-4, in the assay with HL-60, with M14, in the assay with SF-539 and with SR was > 100 µM (inactive) throughout. The GI50 with KM12 and with A498 was > 100 µM (inactive) each time.

`O=C(O)CN1CCN2CCCCCN(CC1)CCN(CC(=O)O)CC2`: the GI50 in the assay on SK-MEL-5 was > 100 µM (inactive); with Malme-3M, 22.4 µM (inactive); with LOX IMVI it was > 100 µM (inactive); in the assay with HT-29, 31.2 µM (inactive); in the assay with A549, > 100 µM (inactive); in the assay with MDA-MB-231, > 100 µM (inactive). Also, the GI50 with Hs-578T is 31.8 µM (inactive); in the assay with DU-145, > 100 µM (inactive); in the assay with MCF7, > 100 µM (inactive); in the assay on COLO 205, > 100 µM (inactive); in the assay on U-251 it was > 100 µM (inactive); with ACHN, > 100 µM (inactive). For the same compound, the GI50 in the assay on NCI-H460 is 91.4 µM (inactive); in the assay on OVCAR-4 it was > 100 µM (inactive); with HL-60, 5.26 µM (inactive); in the assay with M14, > 100 µM (inactive); in the assay on SF-539, > 100 µM (inactive); in the assay on SR, 45.1 µM (inactive). Also, the GI50 with KM12 was 84.7 µM (inactive); in the assay on A498 it was > 100 µM (inactive).

With `C=C1CC(Cn2ccc(=O)[nH]c2=O)(c2ccc(-c3ccccc3)cc2)OC1=O` (stereo not given), the GI50 in the assay with SK-MEL-5 is 1.16 µM (inactive); with Malme-3M it was 1.46 µM (inactive); in the assay with LOX IMVI, 0.493 µM (active); in the assay with HT-29, 0.938 µM (active); in the assay on A549 it was 11.1 µM (inactive); in the assay on MDA-MB-231 it was 1.98 µM (inactive). Besides, the GI50 in the assay with Hs-578T was 3.7 µM (inactive); in the assay on DU-145 it was 1.05 µM (active); with MCF7, 0.916 µM (active); in the assay with COLO 205, 0.441 µM (active); in the assay with U-251 it was 12.1 µM (inactive); with ACHN it was 1.78 µM (inactive). Besides, the GI50 in the assay on NCI-H460 is 11.2 µM (inactive); in the assay on OVCAR-4, 2.1 µM (inactive); with HL-60 it was 0.154 µM (active); in the assay with M14, 1.67 µM (inactive); with SF-539, 2.4 µM (inactive); with SR, 0.995 µM (active). The GI50 is 3.61 µM (inactive) in the assay on KM12 and 2.86 µM (inactive) in the assay on A498.

Regarding `N=C(CCl)NC1CN2CCC1CC2` (stereo not given), the GI50 in the assay with SK-MEL-5 was > 100 µM (inactive); in the assay on Malme-3M, > 100 µM (inactive); in the assay with LOX IMVI, 34.1 µM (inactive); in the assay with HT-29, 48.3 µM (inactive); with A549, > 100 µM (inactive); with MDA-MB-231 it was > 100 µM (inactive). Moreover, the GI50 with Hs-578T was > 100 µM (inactive); in the assay with DU-145, > 100 µM (inactive); in the assay with MCF7, 42.3 µM (inactive); in the assay on COLO 205, 27.4 µM (inactive); with U-251 it was 49.1 µM (inactive); in the assay on ACHN it was 87.7 µM (inactive). The GI50 is > 100 µM (inactive) in the assay on NCI-H460; 59 µM (inactive) in the assay with OVCAR-4; 18.4 µM (inactive) with HL-60; > 100 µM (inactive) in the assay with M14; 60.5 µM (inactive) with SF-539; 32.7 µM (inactive) in the assay on SR. Also, the GI50 in the assay with KM12 and in the assay with A498 was > 100 µM (inactive) each time.

For `OC(c1ccc(-c2ccccc2)cc1)C(F)(F)c1nc2ccccc2o1` (stereo not given), the GI50 was 65.3 µM (inactive) in the assay on SK-MEL-5; 91.8 µM (inactive) in the assay on Malme-3M; > 95.3 µM (inactive) in the assay on LOX IMVI; > 68.1 µM (inactive) in the assay on HT-29; 40.4 µM (inactive) in the assay on A549; 17.5 µM (inactive) in the assay on MDA-MB-231. Also, the GI50 is 20.9 µM (inactive) in the assay on Hs-578T; 26.5 µM (inactive) with DU-145; 25.3 µM (inactive) in the assay on MCF7; > 74 µM (inactive) in the assay with COLO 205; 30.7 µM (inactive) in the assay with U-251; 56.6 µM (inactive) in the assay on ACHN. In addition, the GI50 with NCI-H460 is 37.5 µM (inactive); with OVCAR-4, 18.6 µM (inactive); in the assay on HL-60 it was 15.5 µM (inactive); with M14, > 100 µM (inactive); in the assay with SF-539, 31.2 µM (inactive); in the assay with SR, 25.9 µM (inactive). In addition, the GI50 is 36.8 µM (inactive) in the assay with KM12 and 9.12 µM (inactive) in the assay on A498.

For the compound `Clc1ccc(-c2nnc3sc4nc5ccccc5c-4nn23)c(Cl)c1`, the GI50 in the assay on SK-MEL-5 was 42.8 µM (inactive); in the assay on Malme-3M, 49.4 µM (inactive); with LOX IMVI, 44 µM (inactive); in the assay with HT-29 it was 55.7 µM (inactive); with A549 it was 41.7 µM (inactive); with MDA-MB-231, 99.3 µM (inactive). For the same compound, the GI50 in the assay on Hs-578T is 21.7 µM (inactive); with DU-145, 72.1 µM (inactive); in the assay on MCF7, 43.3 µM (inactive); with COLO 205, 56.4 µM (inactive); with U-251, 36.6 µM (inactive); in the assay with ACHN, 82.8 µM (inactive). Moreover, the GI50 in the assay with NCI-H460 was 41.8 µM (inactive); in the assay on OVCAR-4, 42 µM (inactive); in the assay with HL-60, 41.7 µM (inactive); in the assay on M14, 48.3 µM (inactive); with SF-539, 50.9 µM (inactive); with SR, 44.9 µM (inactive). Besides, the figures for the GI50 in the assay with KM12 and in the assay with A498 were 37.5 µM (inactive) and 36.4 µM (inactive), respectively.

Source of the values: ChEMBL document CHEMBL1201862, “PubChem BioAssay data set” (2004).
